Assay results as given in patent US10689383B2, “Optionally fused heterocyclyl-substituted derivatives of pyrimidine useful for the treatment of inflammatory, metabolic, oncologic and autoimmune diseases” (NUEVOLUTION A/S, priority 2014, dated 2020).

Biological target: T1, human RORγt (Ligand Binding Domain) (Homo sapiens, UniProt P51449)
T1 construct: purchased Crelux (Planegg, Germany) batch no PC5032-1
T1 sequence (P51449 269-508 limits assumed): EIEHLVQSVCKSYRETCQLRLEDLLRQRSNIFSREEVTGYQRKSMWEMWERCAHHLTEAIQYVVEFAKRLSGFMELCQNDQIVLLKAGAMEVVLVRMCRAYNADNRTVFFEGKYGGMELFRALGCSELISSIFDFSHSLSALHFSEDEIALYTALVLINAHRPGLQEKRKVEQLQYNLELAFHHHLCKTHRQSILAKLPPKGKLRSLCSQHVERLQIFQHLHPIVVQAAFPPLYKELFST
Assay: Fluorescence Polarization (FP) Assay
Conditions: Fluorescence Polarization (FP) Assay; values given as upper bounds of activity ranges; read-out: FP activity range
Description: The activity of the compounds was evaluated using a Fluorescence Polarization (FP) Assay and, in most cases, a Th17 Assay and/or RORγ Reporter assay (also referred to as Gal4 assay). The FP assay is an in vitro assay monitoring binding within the ligand binding pocket. The RORγ and the Th17 assays are both cell-based assays monitoring functional activity of the compound assayed.
The total volume was 25 μl, in a black Perkin Elmer OptiPlate. As negative control, 1 μl DMSO was used. […] The probe is a fluorescently labeled (TAMRA) RORγt ligand identified by Nuevolution with a total molecular weight of 910 g/mole as shown in Graph A in FIG. 1.

| IC50 | Compound |
| --- | --- |
| < 1 µM | CC(C)C[C@@H](Nc1ncnc(N2CC(C)CC2c2ccc(C(F)(F)F)cc2)c1F)C(N)=O (stereo partly drawn) [Example 34, (2R)-2-[[5-fluoro-6-[4-methyl-2-[4-(trifluoromethyl)phenyl]pyrrolidin-1-yl]pyrimidin-4-yl]amino]-4-methyl-pentanamide] |
| < 10 µM | O=C(O)c1ccc(CNc2ncnc(N3CCCC3c3ccc(C(F)(F)F)cc3)c2F)cc1 (stereo not drawn) [Example 44, 4-[[[5-fluoro-6-[2-[4-(trifluoromethyl)phenyl]pyrrolidin-1-yl]pyrimidin-4-yl]amino]methyl]benzoic acid] |
| < 10 µM | CC(=O)N1CCOC([C@@H](CC(C)(C)C)Nc2ncnc(N3CCCC3c3ccc(C(F)(F)F)cc3)c2F)C1 (stereo partly drawn) [Example 71, 1-[2-[(1R)-1-[[5-fluoro-6-[2-[4-(trifluoromethyl)phenyl]pyrrolidin-1-yl]pyrimidin-4-yl]amino]-3,3-dimethyl-butyl]morpholin-4-yl]ethanone] |
| < 10 µM | Cn1ccc(CNc2ncnc(N3CCCC3c3ccc(C(F)(F)F)cc3)c2F)c1 (stereo not drawn) [Example 105, 5-fluoro-N-[(1-methylpyrrol-3-yl)methyl]-6-[2-[4-(trifluoromethyl)phenyl]pyrrolidin-1-yl]pyrimidin-4-amine] |
| < 10 µM | O=C1Cc2cc(CNc3ncnc(N4CCCC4c4ccc(C(F)(F)F)cc4)c3F)ccc2N1 (stereo not drawn) [Example 122, 5-[[[5-fluoro-6-[2-[4-(trifluoromethyl)phenyl]pyrrolidin-1-yl]pyrimidin-4-yl]amino]methyl]indolin-2-one] |
| < 10 µM | O=C1CC(CNc2ncnc(N3CCCC3c3ccc(C(F)(F)F)cc3)c2F)CN1C1CCCC1 (stereo not drawn) [Example 130, 1-cyclopentyl-4-[[[5-fluoro-6-[2-[4-(trifluoromethyl)phenyl]pyrrolidin-1-yl]pyrimidin-4-yl]amino]methyl]pyrrolidin-2-one] |
| < 10 µM | Cc1cccc(CNc2ncnc(N3CCCC3c3ccc(C(F)(F)F)cc3)c2F)n1 (stereo not drawn) [Example 132, 5-fluoro-N-[(6-methyl-2-pyridyl)methyl]-6-[2-[4-(trifluoromethyl)phenyl]pyrrolidin-1-yl]pyrimidin-4-amine] |
| < 10 µM | O=C1CC2(CCCN(c3ncnc(N4CCCC4c4ccc(C(F)(F)F)cc4)c3F)C2)CN1 (stereo not drawn) [Example 134, 9-[5-fluoro-6-[2-[4-(trifluoromethyl)phenyl]pyrrolidin-1-yl]pyrimidin-4-yl]-3,9-diazaspiro[4.5]decan-2-one] |
| < 10 µM | CN1CC(CN(C)c2ncnc(N3CCCC3c3ccc(C(F)(F)F)cc3)c2F)CC1=O (stereo not drawn) [Example 135, 4-[[[5-fluoro-6-[2-[4-(trifluoromethyl)phenyl]pyrrolidin-1-yl]pyrimidin-4-yl]-methyl-amino]methyl]-1-methyl-pyrrolidin-2-one] |
| < 2 µM | Fc1c(NCc2cccnc2)ncnc1N1CCCC1c1ccc(C(F)(F)F)cc1 (stereo not drawn) [Example 141, 5-fluoro-N-(3-pyridylmethyl)-6-[2-[4-(trifluoromethyl)phenyl]pyrrolidin-1-yl]pyrimidin-4-amine] |
| < 2 µM | O=C1CCCN1c1cccc(CNc2ncnc(N3CCCC3c3ccc(C(F)(F)F)cc3)c2F)c1 (stereo not drawn) [Example 143, 1-[3-[[[5-fluoro-6-[2-[4-(trifluoromethyl)phenyl]pyrrolidin-1-yl]pyrimidin-4-yl]amino]methyl]phenyl]pyrrolidin-2-one] |

Second part, the compound before the results:

| Compound | IC50 |
| --- | --- |
| O=C(O)Cc1ccc(CNc2ncnc(N3CCCC3c3ccc(C(F)(F)F)cc3)c2F)cc1 (stereo not drawn) [Example 32, 2-[4-[[[5-fluoro-6-[2-[4-(trifluoromethyl)phenyl]pyrrolidin-1-yl]pyrimidin-4-yl]amino]methyl]phenyl]acetic acid] | < 0.5 µM |
| CC1CC(c2ccc(C(F)(F)F)cc2)N(c2ncnc(N[C@H](Cc3ccc(F)cc3)C(N)=O)c2F)C1 (stereo partly drawn) [Example 37, (2R)-2-[[5-fluoro-6-[4-methyl-2-[4-(trifluoromethyl)phenyl]pyrrolidin-1-yl]pyrimidin-4-yl]amino]-3-(4-fluorophenyl)propanamide] | < 1 µM |
| CC(CC1CCOCC1)Nc1ncnc(N2CCCC2c2ccc(C(F)(F)F)cc2)c1F (stereo not drawn) [Example 41, 5-fluoro-N-(1-methyl-2-tetrahydropyran-4-yl-ethyl)-6-[2-[4-(trifluoromethyl)phenyl]pyrrolidin-1-yl]pyrimidin-4-amine] | < 2 µM |
| CC1(C)NC(=O)N(Cc2ccc(CNc3ncnc(N4CCCC4c4ccc(C(F)(F)F)cc4)c3F)cc2)C1=O (stereo not drawn) [Example 45, 3-[[4-[[[5-fluoro-6-[2-[4-(trifluoromethyl)phenyl]pyrrolidin-1-yl]pyrimidin-4-yl]amino]methyl]phenyl]methyl]-5,5-dimethyl-imidazolidine-2,4-dione] | < 10 µM |
| NS(=O)(=O)Cc1ccc(CNc2ncnc(N3CCCC3c3ccc(C(F)(F)F)cc3)c2F)cc1 (stereo not drawn) [Example 46, [4-[[[5-fluoro-6-[2-[4-(trifluoromethyl)phenyl]pyrrolidin-1-yl]pyrimidin-4-yl]amino]methyl]phenyl]methane-sulfonamide] | < 1 µM |
| Fc1c(NCc2ccc(C(F)(F)F)cc2)ncnc1N1CCCC1c1ccc(C(F)(F)F)cc1 (stereo not drawn) [Example 48, 5-fluoro-N-[[4-(trifluoromethyl)phenyl]methyl]-6-[2-[4-(trifluoromethyl)phenyl]pyrrolidin-1-yl]pyrimidin-4-amine] | < 2 µM |
| CCC(Nc1ncnc(N2CCCC2c2ccc(C(F)(F)F)cc2)c1F)c1ccc2c(c1)OCCCO2 (stereo not drawn) [Example 55, N-[1-(3,4-dihydro-2H-1,5-benzodioxepin-7-yl)propyl]-5-fluoro-6-[2-[4-(trifluoromethyl)phenyl]pyrrolidin-1-yl]pyrimidin-4-amine] | < 10 µM |
| O=C(c1ccc(CNc2ncnc(N3CCCC3c3ccc(C(F)(F)F)cc3)c2F)cc1)N1CCOCC1 (stereo not drawn) [Example 57, [4-[[[5-fluoro-6-[2-[4-(trifluoromethyl)phenyl]pyrrolidin-1-yl]pyrimidin-4-yl]amino]methyl]phenyl]-morpholino-methanone] | < 10 µM |
| OCC1CCN(c2ccc(CNc3ncnc(N4CCCC4c4ccc(C(F)(F)F)cc4)c3F)cn2)CC1 (stereo not drawn) [Example 58, [1-[5-[[[5-fluoro-6-[2-[4-(trifluoromethyl)phenyl]pyrrolidin-1-yl]pyrimidin-4-yl]amino]methyl]-2-pyridyl]-4-piperidyl]methanol] | < 10 µM |
| Fc1c(NCc2ccc(OCC3CCCO3)cc2)ncnc1N1CCCC1c1ccc(C(F)(F)F)cc1 (stereo not drawn) [Example 59, 5-fluoro-N-[[4-(tetrahydrofuran-2-ylmethoxy)phenyl]methyl]-6-[2-[4-(trifluoromethyl)phenyl]pyrrolidin-1-yl]pyrimidin-4-amine] | < 10 µM |
| NC(=O)C1CCCN(c2ccc(CNc3ncnc(N4CCCC4c4ccc(C(F)(F)F)cc4)c3F)cc2)C1 (stereo not drawn) [Example 61, 1-[4-[[[5-fluoro-6-[2-[4-(trifluoromethyl)phenyl]pyrrolidin-1-yl]pyrimidin-4-yl]amino]methyl]phenyl]piperidine-3-carboxamide] | < 10 µM |
| COC(=O)Cc1ccc(CNc2ncnc(N3CCCC3c3ccc(C(F)(F)F)cc3)c2F)cc1 (stereo not drawn) [Example 70, methyl 2-[4-[[[5-fluoro-6-[2-[4-(trifluoromethyl)phenyl]pyrrolidin-1-yl]pyrimidin-4-yl]amino]methyl]phenyl]acetate] | < 2 µM |
| O=C1CCC(CNc2ncnc(N3CCCC3c3ccc(C(F)(F)F)cc3)c2F)N1 (stereo not drawn) [Example 108, 5-[[[5-fluoro-6-[2-[4-(trifluoromethyl)phenyl]pyrrolidin-1-yl]pyrimidin-4-yl]amino]methyl]pyrrolidin-2-one] | < 10 µM |
| O=C(O)c1ccc(CCNc2ncnc(N3CCCC3c3ccc(C(F)(F)F)cc3)c2F)cc1 (stereo not drawn) [Example 120, 4-[2-[[5-fluoro-6-[2-[4-(trifluoromethyl)phenyl]pyrrolidin-1-yl]pyrimidin-4-yl]amino]ethyl]benzoic acid] | < 10 µM |
| CCc1ccc(CN(C)c2ncnc(N3CCCC3c3ccc(C(F)(F)F)cc3)c2F)nc1 (stereo not drawn) [Example 136, N-[(5-ethyl-2-pyridyl)methyl]-5-fluoro-N-methyl-6-[2-[4-(trifluoromethyl)phenyl]pyrrolidin-1-yl]pyrimidin-4-amine] | < 2 µM |
| O=C1CCCN1c1ccc(CNc2ncnc(N3CCCC3c3ccc(C(F)(F)F)cc3)c2F)cc1 (stereo not drawn) [Example 137, 1-[4-[[[5-fluoro-6-[2-[4-(trifluoromethyl)phenyl]pyrrolidin-1-yl]pyrimidin-4-yl]amino]methyl]phenyl]pyrrolidin-2-one] | < 10 µM |
| Fc1c(NCc2ccc(-c3nnn[nH]3)cc2)ncnc1N1CCCC1c1ccc(C(F)(F)F)cc1 (stereo not drawn) [Example 138, 5-fluoro-N-[[4-(1H-tetrazol-5-yl)phenyl]methyl]-6-[2-[4-(trifluoromethyl)phenyl]pyrrolidin-1-yl]pyrimidin-4-amine] | < 0.5 µM |
| Fc1c(NCc2ccccc2)ncnc1N1CCCC1c1ccc(C(F)(F)F)cc1 (stereo not drawn) [Example 139, N-benzyl-5-fluoro-6-[2-[4-(trifluoromethyl)phenyl]pyrrolidin-1-yl]pyrimidin-4-amine] | < 2 µM |
| COc1cc(CNc2ncnc(N3CCCC3c3ccc(C(F)(F)F)cc3)c2F)cc(OC)c1 (stereo not drawn) [Example 142, N-[(3,5-dimethoxyphenyl)methyl]-5-fluoro-6-[2-[4-(trifluoromethyl)phenyl]pyrrolidin-1-yl]pyrimidin-4-amine] | < 2 µM |
